ChEMBL document CHEMBL1201862, “PubChem BioAssay data set” (2004)
Calls of active or inactive are those of the source.

What was measured:
[1] = molecular target: T1, Long-chain-fatty-acid--AMP ligase FadD28 (Mycobacterium tuberculosis, UniProt P9WQ59); test: Fluorescence polarization aasay to screen for inhibitors that compete for the binding of FadD28 to a bisubstrate Measured in Biochemical System Using Plate Reader - 2147-01_Inhibitor_Dose_CherryPick_Activity.; format: functional, Mycobacterium tuberculosis H37Rv
T1 sequence (P9WQ59 whole entry): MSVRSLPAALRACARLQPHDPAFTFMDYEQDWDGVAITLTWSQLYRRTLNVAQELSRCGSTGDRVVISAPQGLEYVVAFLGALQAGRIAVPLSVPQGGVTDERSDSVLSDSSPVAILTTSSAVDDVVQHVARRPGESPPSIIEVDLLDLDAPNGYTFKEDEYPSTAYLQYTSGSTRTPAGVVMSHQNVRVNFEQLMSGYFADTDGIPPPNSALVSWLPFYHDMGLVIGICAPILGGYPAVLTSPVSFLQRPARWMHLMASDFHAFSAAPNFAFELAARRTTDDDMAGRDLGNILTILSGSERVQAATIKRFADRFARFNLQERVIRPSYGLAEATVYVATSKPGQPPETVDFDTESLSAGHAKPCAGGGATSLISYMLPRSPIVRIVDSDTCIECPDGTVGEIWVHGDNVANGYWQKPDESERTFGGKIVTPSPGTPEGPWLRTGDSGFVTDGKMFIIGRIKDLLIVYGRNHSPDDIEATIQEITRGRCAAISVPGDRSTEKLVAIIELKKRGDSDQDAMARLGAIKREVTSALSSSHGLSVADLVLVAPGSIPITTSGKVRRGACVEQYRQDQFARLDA

[2] = molecular target: Nuclear receptor subfamily 5 group A member 2 (Homo sapiens, UniProt O00482); format: functional, cell-based;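 also: HEK293T cells transfected with LRH-1 and a StAR promoter luciferase reporter; potency for inhibitors that lower LRH-1 driven reporter light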
Chain of Nuclear receptor subfamily 5 group A member 2 (O00482 whole entry): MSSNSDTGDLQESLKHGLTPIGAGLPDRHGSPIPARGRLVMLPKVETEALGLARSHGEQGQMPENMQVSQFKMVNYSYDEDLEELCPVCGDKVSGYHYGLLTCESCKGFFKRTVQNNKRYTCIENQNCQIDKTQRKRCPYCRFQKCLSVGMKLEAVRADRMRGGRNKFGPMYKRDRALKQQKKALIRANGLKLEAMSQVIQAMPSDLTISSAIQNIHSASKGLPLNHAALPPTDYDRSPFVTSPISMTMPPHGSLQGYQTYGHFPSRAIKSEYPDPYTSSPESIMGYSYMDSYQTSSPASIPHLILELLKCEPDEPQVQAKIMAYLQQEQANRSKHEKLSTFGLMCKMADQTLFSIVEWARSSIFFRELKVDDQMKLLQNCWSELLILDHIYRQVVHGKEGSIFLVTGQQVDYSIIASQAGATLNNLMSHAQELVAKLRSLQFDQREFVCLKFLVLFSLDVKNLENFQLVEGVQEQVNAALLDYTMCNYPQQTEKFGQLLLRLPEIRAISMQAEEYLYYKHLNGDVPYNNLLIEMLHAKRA

Steroidogenic factor 1 = Steroidogenic factor 1 (Homo sapiens, UniProt Q13285); test: Counterscreen for inverse agonists of the liver receptor homolog-1 (LRH-1; NR5A2): Luminescence-based cell-based high throughput dose response assay to identify inverse agonists of the Steroidogenic Factor 1 Nuclear Receptor (SF1; NR5A1).; format: functional
Chain of Steroidogenic factor 1 (Q13285 whole entry): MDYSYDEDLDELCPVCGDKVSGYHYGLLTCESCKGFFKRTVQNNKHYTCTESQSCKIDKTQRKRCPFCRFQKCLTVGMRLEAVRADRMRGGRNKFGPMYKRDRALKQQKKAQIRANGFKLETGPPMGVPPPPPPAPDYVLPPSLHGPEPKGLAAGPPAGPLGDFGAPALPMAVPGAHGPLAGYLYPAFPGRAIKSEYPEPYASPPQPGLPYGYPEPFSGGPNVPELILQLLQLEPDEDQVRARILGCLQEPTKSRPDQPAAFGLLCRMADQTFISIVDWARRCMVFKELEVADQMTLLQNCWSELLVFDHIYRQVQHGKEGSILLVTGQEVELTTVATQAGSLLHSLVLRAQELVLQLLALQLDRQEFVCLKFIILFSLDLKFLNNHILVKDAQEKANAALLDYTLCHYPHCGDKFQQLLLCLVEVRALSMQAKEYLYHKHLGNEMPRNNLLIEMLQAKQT

[3] = nonselective StAR promoter luciferase inhibitors – cell-based, luminescence, luciferase reporter, counter-screen for LRH-1 inverse agonist project, dose response (AID 651969); format: functional
[4] = molecular target: T2, Calpain-2 catalytic subunit (Sus scrofa, UniProt P43367); test: m-calpain protease blockers, concentration series – biochemical, fluorogenic peptide substrate, dose response (AID 1420); format: functional
T2 sequence (P43367 whole entry): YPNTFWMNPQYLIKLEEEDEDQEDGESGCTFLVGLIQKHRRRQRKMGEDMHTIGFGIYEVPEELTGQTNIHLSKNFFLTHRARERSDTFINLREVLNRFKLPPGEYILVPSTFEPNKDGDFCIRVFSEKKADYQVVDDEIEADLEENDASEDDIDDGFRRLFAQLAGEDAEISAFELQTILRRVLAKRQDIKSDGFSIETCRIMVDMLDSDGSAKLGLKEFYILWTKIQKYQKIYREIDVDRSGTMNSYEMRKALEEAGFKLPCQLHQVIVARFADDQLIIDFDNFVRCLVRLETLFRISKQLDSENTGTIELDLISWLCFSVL

[5] = molecular target: T3, Corticotropin-releasing factor receptor 2/Corticotropin-releasing factor-binding protein (Homo sapiens, UniProt P24387+Q13324); test: Dose Response confirmation of uHTS hits for small molecule antagonists of the CRF-binding protein and CRF-R2 receptor complex.; format: functional; conditions: read-out: IC50_Mean
T3 sequence (Q13324 whole entry): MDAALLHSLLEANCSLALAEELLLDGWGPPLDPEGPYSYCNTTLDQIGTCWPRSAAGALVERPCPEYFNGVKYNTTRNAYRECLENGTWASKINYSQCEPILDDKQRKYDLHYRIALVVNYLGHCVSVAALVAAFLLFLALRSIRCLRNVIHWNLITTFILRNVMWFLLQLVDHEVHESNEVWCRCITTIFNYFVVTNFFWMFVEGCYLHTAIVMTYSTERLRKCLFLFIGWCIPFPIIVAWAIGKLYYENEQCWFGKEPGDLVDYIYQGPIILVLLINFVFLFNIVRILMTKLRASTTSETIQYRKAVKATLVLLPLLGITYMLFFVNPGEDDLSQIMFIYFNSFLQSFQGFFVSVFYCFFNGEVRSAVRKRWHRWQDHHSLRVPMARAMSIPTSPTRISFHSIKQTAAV
T3 sequence (P24387 whole entry): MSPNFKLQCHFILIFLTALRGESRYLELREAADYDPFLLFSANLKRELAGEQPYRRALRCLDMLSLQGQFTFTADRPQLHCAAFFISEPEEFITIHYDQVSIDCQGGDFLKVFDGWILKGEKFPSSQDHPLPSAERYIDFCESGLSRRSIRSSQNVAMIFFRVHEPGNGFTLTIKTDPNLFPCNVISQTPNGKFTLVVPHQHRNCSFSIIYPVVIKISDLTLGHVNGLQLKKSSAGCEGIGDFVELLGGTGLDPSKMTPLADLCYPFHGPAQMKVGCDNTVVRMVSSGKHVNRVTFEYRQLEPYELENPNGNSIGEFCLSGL

[6] = molecular target: T3, Corticotropin-releasing factor receptor 2/Corticotropin-releasing factor-binding protein; test: activators of CRF receptor 2 with binding protein – uHTS hits, confirmation (AID 602473); format: functional; conditions: read-out: EC50_Mean
[7] = blockers of CRF-binding protein–CRF-R2 complex – cell-based, uHTS hits, 384-well, dose response (AID 651639); format: functional, Homo sapiens; conditions: read-out: IC50_Mean
[8] = molecular target: T4, Methionyl-tRNA synthetase, putative (Trypanosoma brucei brucei, UniProt Q38C91); format: functional, Trypanosoma brucei brucei strain 927/4 GUTat10.1
T4 sequence (Q38C91 whole entry): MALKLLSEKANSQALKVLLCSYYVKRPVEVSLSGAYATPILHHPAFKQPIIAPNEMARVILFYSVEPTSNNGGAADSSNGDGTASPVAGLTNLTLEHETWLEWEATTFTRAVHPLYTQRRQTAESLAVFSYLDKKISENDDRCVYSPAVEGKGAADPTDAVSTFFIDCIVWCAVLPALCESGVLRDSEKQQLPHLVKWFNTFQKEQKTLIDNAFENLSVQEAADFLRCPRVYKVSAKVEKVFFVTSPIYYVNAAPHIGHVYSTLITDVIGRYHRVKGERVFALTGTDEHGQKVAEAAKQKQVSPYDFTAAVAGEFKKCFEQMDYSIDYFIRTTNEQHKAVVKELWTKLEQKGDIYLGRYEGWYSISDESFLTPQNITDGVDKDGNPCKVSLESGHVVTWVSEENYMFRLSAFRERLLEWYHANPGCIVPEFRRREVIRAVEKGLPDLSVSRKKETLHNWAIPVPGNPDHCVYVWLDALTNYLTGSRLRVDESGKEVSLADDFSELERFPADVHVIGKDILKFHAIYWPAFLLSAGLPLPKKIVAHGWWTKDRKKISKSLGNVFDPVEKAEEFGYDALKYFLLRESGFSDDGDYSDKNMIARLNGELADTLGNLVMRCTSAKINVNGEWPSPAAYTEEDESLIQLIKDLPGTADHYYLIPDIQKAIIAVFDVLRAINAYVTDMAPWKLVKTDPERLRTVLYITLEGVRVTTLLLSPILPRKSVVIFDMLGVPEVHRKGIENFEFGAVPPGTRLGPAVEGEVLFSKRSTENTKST

[9] = Counterscreen for inhibitors of Trypanosoma brucei methionyl tRNA synthetase (MetRS): Luminescence-based cell-based high throughput dose response assay to identify compounds that are cytotoxic to Jurkat human T lymphocyte cells.; format: functional
[10] = molecular target: T4, Methionyl-tRNA synthetase, putative; format: functional, Trypanosoma brucei brucei strain 927/4 GUTat10.1; remark: listed apart in the source
Leucine aminopeptidase = molecular target: T5, Leucine aminopeptidase (Plasmodium falciparum 3D7, UniProt Q8IL11); test: P. falciparum M17LAP inhibitors, primary screen, biochemical, fluorogenic H-Leu-NHMec substrate, 1536-well (AID 1619); format: functional
T5 sequence (Q8IL11 whole entry): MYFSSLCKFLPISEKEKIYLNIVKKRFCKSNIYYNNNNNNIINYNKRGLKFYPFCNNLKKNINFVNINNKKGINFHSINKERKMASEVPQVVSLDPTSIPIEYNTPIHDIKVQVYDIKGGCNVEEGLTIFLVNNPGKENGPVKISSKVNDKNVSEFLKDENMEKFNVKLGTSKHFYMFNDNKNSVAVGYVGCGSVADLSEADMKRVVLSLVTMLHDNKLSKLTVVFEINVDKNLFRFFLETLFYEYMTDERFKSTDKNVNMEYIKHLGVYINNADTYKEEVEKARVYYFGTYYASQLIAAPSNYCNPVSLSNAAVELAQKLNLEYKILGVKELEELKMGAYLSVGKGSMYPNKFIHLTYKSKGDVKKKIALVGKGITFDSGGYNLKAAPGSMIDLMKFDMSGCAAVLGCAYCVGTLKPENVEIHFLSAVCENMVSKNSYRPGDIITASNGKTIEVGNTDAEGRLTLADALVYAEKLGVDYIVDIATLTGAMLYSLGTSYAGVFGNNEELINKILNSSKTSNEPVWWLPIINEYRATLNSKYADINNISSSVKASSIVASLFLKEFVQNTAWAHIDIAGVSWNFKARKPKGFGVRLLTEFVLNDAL

Aminopeptidase N = molecular target: T6, Aminopeptidase N (Plasmodium falciparum FcB1/Columbia, UniProt O96935); test: malaria alanyl aminopeptidase activity blockers – biochemical, fluorogenic H-Leu-NHMec substrate, 1536-well (AID 1445); set-up: species or system Plasmodium falciparum 3D7, 3D7
T6 sequence (O96935 whole entry): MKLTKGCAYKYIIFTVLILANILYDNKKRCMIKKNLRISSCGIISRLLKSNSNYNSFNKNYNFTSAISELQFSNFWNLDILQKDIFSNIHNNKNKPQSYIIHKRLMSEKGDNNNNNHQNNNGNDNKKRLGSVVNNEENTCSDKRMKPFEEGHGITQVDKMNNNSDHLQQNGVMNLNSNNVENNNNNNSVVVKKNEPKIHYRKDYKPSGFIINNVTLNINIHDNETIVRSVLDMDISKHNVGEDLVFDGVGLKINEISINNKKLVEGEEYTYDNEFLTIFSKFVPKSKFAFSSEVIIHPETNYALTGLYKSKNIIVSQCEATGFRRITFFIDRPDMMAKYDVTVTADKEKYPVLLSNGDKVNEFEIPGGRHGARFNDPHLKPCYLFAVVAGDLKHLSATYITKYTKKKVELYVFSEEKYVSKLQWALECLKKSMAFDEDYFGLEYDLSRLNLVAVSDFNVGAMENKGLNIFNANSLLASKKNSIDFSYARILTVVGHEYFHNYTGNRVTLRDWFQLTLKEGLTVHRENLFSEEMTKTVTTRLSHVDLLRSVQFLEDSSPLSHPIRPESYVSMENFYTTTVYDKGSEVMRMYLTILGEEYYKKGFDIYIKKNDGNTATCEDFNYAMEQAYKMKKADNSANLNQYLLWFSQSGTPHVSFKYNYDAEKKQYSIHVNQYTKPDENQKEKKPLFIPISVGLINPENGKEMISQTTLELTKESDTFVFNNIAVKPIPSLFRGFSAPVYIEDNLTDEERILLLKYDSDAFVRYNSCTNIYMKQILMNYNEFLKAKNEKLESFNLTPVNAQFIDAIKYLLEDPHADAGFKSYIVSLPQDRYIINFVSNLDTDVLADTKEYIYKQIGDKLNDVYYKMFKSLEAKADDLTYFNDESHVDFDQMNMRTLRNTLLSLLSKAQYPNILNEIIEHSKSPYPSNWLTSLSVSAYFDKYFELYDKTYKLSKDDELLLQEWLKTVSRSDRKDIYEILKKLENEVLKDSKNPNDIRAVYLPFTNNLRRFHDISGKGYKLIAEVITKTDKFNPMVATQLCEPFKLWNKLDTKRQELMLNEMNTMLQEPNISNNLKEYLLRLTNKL

[11] = blockers of HIV-1 envelope-mediated cell-cell fusion – cherry-pick, dose response (AID 652057); format: functional, cell-based
[12] = blockers of HIV-1 ZM109 envelope-driven cell-cell fusion – HeLa effector, CEM target cells, luciferase, cherry-pick, dose response (AID 652058); format: functional, cell-based;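 also: luciferase signal from HIV-1 Env mediated cell-cell fusion of effector and target cells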
[13] = off-target signal loss in HeLa-CEM21 co-culture – HeLa F-luc CTL cells, cherry-picked, counter-screen for HIV-1 Env fusion inhibitor project, dose response (AID 652040); format: functional, cell-based;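 also: potency for signal decrease marking cytotoxic or nonspecific inhibition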
[14] = HIV-1 AD8 envelope cell-cell fusion blockers – cherry-pick, dose response (AID 652062); format: functional, cell-based;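 also: luciferase signal from cell-cell fusion driven by HIV-1 clade B AD8 Env; potency is for inhibitors of fusion seen as a drop in luminescence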

O=C(OCC(=O)c1c[nH]c2ccccc12)c1ccc(F)c(S(=O)(=O)N2CCOCC2)c1
AC50 [1]: 60.2 µM (active)

CS(=O)(=O)c1ccc(-c2cc(NC=O)c3ncc(-c4ccc(F)cc4)n3c2)cc1
IC50 [2]: 4.22 µM (active)
IC50 (Steroidogenic factor 1): 2.73 µM (active)
IC50 [3]: 12.4 µM (inactive)

O=C(c1ccco1)N(Cc1cccc([N+](=O)[O-])c1)c1ccc(Br)cc1
IC50 [4]: 12 µM (not active)
IC50 [5]: < 0.368 µM (active)
EC50 [6]: > 53 µM (inactive)
IC50 [7]: > 20 µM (inactive)

O=C(CN1C(=O)NC2(CCOc3ccccc32)C1=O)c1ccc(Cl)s1 (stereo unspecified)
AC50 [1]: > 100 µM (inactive)

COc1ccc(CCNC(=O)CSc2ccc(NC(C)=O)cc2)cc1OC
IC50 [2]: 17.4 µM (inactive)
IC50 (Steroidogenic factor 1): 2.27 µM (active)
IC50 [3]: 35.9 µM (inactive)

O=C(NNC(=O)c1cc(-c2cccnc2)nc2ccccc12)Nc1ccc(Cl)cc1
IC50 [8]: 39.5 µM (inactive)
IC50 [9]: 63 µM (inactive)
IC50 [10]: 25.8 µM (inactive)

COc1ccc(/C=C2\SC(NS(=O)(=O)c3cccs3)=NC2=O)cc1
IC50 (Leucine aminopeptidase): 31 µM (active)
IC50 (Aminopeptidase N): 41.1 µM (active)
IC50 [5]: 36.5 µM (active)
EC50 [6]: > 53 µM (inactive)
IC50 [7]: > 20 µM (inactive)

COc1ccc(Nc2c(CCc3ccccc3)nc3nc(C)cc(C)n23)cc1
AC50 [11]: 5.27 µM (active)
AC50 [12]: 6.28 µM (active)
AC50 [13]: 4.03 µM (active)
AC50 [14]: 4.63 µM (active)

Cc1ccccc1C(=O)NC1CCN(CC(=O)Nc2ccc(Br)cc2)CC1
IC50 [2]: 35.9 µM (inactive)
IC50 (Steroidogenic factor 1): 3.32 µM (active)
IC50 [3]: 35.9 µM (inactive)

O=C(NCc1ccco1)c1cccc(Nc2nc3ccc(Br)cc3[nH]2)c1
IC50 [4]: 11.9 µM (not active)
IC50 [8]: 22.3 µM (inactive)
IC50 [10]: 13.5 µM (inactive)

O=C(NCc1ccco1)c1cccc(Nc2nc3cc(Br)ccc3[nH]2)c1
IC50 [9]: 83.3 µM (inactive)
